≈ marks a conversion by molar mass, not a printed value. Structures can show the parent of a compound that is named as a salt. Calls of active or inactive are those of the source. No cut-off for these calls is given here.

Data set [1] concerns Ribosome. The experiment in a line: Induction of ribosome-mediated readthrough activity in rabbit reticulocyte lysate assessed as suppression of G542X mutation after 90 mins by dual luciferase reporter gene assay. The conditions noted are these: Oryctolagus cuniculus. On the technique in general: Reporter assays use an easily measured gene product as a stand-in for the process of interest.

Data set [2] addresses T1, 80S Ribosome (Homo sapiens) (UniProt P08865+P42677+P62753+P15880+P23396+P61247+P62701+P22090+P46782+P62081+P62241+P46781+P46783+P62280+P25398+P62277+P62263+P62841+P62244+P62249+P08708+P62269+P39019+P60866+P63220+P62266+P62847+P62851+P62854+P62979+P62857+P62273+P62861+P39023+P36578+P46777+Q02878+P18124+P62424+P62917+P32969+P27635+P62906+P62913+P30050+P26373+P40429+P50914+P61313+P18621+Q07020+Q02543+P84098+P46778+P35268+P62829+P62750+P83731+P61254+P61353+P46776+P46779+P47914+P62888+P62899+P62910+P49207+P42766+P18077+Q9Y3U8+P83881+P61927+P61513+P63173+P62891+P62945+P05388+P05386). Kind of data set: Induction of ribosome-mediated readthrough activity in R245X-transfected HEK293 cells assessed as suppression of R245X mutation after 16 hrs by dual luciferase reporter gene assay. The data set is classed as cell-based.

Data set [3] addresses T1, 80S Ribosome (Homo sapiens). Kind of data set: Induction of ribosome-mediated readthrough activity in Q70X-transfected HEK293 cells assessed as suppression of Q70X mutation after 16 hrs by dual luciferase reporter gene assay. The data set is classed as cell-based.
For data set [4], the system named is Ribosome. The experiment in a line: Inhibition of ribosome-mediated translation in prokaryotic system.
Data set [5] deals with Bacillus spizizenii. Kind of data set: Antibacterial activity against Bacillus subtilis ATCC 6633 by double microdilution method. The data set is classed as functional. (Broth dilution looks for growth in wells or tubes with falling amounts of substance.)
The subject of data set [6] is Ribosome. Kind of data set: Induction of ribosome-mediated readthrough activity in rabbit reticulocyte lysate assessed as suppression of W1282X mutation after 90 mins by dual luciferase reporter gene assay. Particulars: Oryctolagus cuniculus.
The target of data set [7] is T1, 80S Ribosome (Homo sapiens). The experiment in a line: Induction of ribosome-mediated readthrough activity in R3X-transfected HEK293 cells assessed as suppression of R3X mutation after 16 hrs by dual luciferase reporter gene assay. The data set is classed as cell-based.
Data set [8] has the same target. Kind of data set: Induction of ribosome-mediated readthrough activity in W1282X-transfected HEK293 cells assessed as suppression of W1282X mutation after 16 hrs by dual luciferase reporter gene assay. The data set is classed as cell-based.
The test system of data set [9] is Ribosome. Kind of data set: Induction of ribosome-mediated readthrough activity in rabbit reticulocyte lysate assessed as suppression of R245X mutation after 90 mins by dual luciferase reporter gene assay. The conditions noted are these: Oryctolagus cuniculus.
The subject of data set [10] is Ribosome. Kind of data set: Induction of ribosome-mediated readthrough activity in rabbit reticulocyte lysate assessed as suppression of R3381X mutation after 90 mins by dual luciferase reporter gene assay. The conditions noted are these: Oryctolagus cuniculus.
Data set [11] can be described thus: (§1) Cytotoxicity against HFF. The conditions noted are these: human, HFF cells; read-out: LC50 (the source's name). The data set is classed as cell-based.
The test system of data set [12] is Escherichia coli. Kind of data set: Antibacterial activity against Escherichia coli R477/100 by double microdilution method. The data set is classed as functional.
A short description of data set [13]: Cytotoxicity against HEK293 cells. Format: cell-based. Particulars: human, read-out: LC50 (the source's name).
In data set [14] the test system is Ribosome. Kind of data set: Induction of ribosome-mediated readthrough activity in rabbit reticulocyte lysate assessed as suppression of Q70X mutation after 90 mins by dual luciferase reporter gene assay. The conditions noted are these: Oryctolagus cuniculus.
Data set [15] relates to Ribosome. The experiment in a line: Induction of ribosome-mediated readthrough activity in rabbit reticulocyte lysate assessed as suppression of R3X mutation after 90 mins by dual luciferase reporter gene assay. The conditions noted are these: Oryctolagus cuniculus.
Data set [16] has as its system HFF. Described as §1. Format: cell-based. Particulars: human, hff; read-out: LC50 (the source's name).

For the molecule `NCC[C@H](O)C(=O)N[C@@H]1C[C@H](N)[C@@H](O[C@H]2O[C@H](CO)[C@@H](O)[C@H](O)[C@H]2N)[C@H](O[C@@H]2O[C@H](CN)[C@@H](O)[C@H]2O)[C@H]1O`, the result in data set [1], in [2], in [3], in [6], in [7] and in data set [8] was Active. Also, the outcome in data set [9] and in [10] was Active. In data set [4], half-maximal inhibition (IC50) required 160 nM. For the same molecule, the MIC – broadly, the lowest concentration found to suppress growth – in data set [5] is 70 µM (≈ 38.9 µg/mL). In [11], the CC50 was determined as 7.8 mM.

For the molecule `NC[C@H]1O[C@@H](O[C@@H]2[C@@H](O)[C@H](N)C[C@H](N)[C@H]2O[C@H]2O[C@H](CO)[C@@H](O)[C@H](O)[C@H]2N)[C@H](O)[C@@H]1O`, the concentration for half-maximal inhibition (IC50) (commonly the midpoint of a concentration-inhibition curve) in [4] came to 460 nM. This molecule returned an MIC in [5] of 100 µM (≈ 45.4 µg/mL). Further, the CC50 in data set [11] was 21.8 mM.

Regarding `C[C@H](N)[C@H]1O[C@@H](O[C@@H]2[C@@H](O)[C@H](NC(=O)[C@@H](O)CCN)C[C@H](N)[C@H]2O[C@H]2O[C@H](CO)[C@@H](O)[C@H](O)[C@H]2N)[C@H](O)[C@@H]1O`, the result in data set [1], in data set [2], in data set [3], in [6], in data set [7] and in data set [8] was Active. Moreover, the outcome in data set [9] and in data set [10] was Active. Further, the MIC turned out to be 1070 µM (≈ 608 µg/mL) in data set [12] and 33 µM (≈ 18.8 µg/mL) in [5]. Besides, the CC50 in [13] was determined as 10.1 mM; in data set [11], 8.1 mM. The molecule also had an IC50 in data set [4] of 2270 nM.

In the case of `C[C@@H](N)[C@H]1O[C@@H](O[C@@H]2[C@@H](O)[C@H](N)C[C@H](N)[C@H]2O[C@H]2O[C@H](CO)[C@@H](O)[C@H](O)[C@H]2N)[C@H](O)[C@@H]1O`, the result in data set [1], in [14], in [6], in data set [9], in [10] and in data set [15] was Active. Besides, the MIC was 4990 µM (≈ 2340 µg/mL) in data set [12] and 78 µM (≈ 36.5 µg/mL) in [5]. In addition, the CC50 in [13] was determined as 19.8 mM; in [11] it was 20.1 mM. In addition, inhibition in data set [4] was half-maximal at 2130 nM (IC50).

Regarding “GENTAMICIN SULFATE [listing 1 of 2 here]”, the outcome in data set [1], in data set [14], in data set [2], in data set [3], in data set [6] and in [7] was Active. In addition, the outcome in data set [8], in data set [9], in [10] and in data set [15] was Active. This molecule also came in with an MIC in data set [5] of under 0.75 µM.

With `C[C@@H](N)[C@H]1O[C@@H](O[C@@H]2[C@@H](O)[C@H](NC(=O)[C@@H](O)CCN)C[C@H](N)[C@H]2O[C@H]2O[C@H](CO)[C@@H](O)[C@H](O)[C@H]2N)[C@H](O)[C@@H]1O`, the outcome in data set [1], in data set [2], in data set [3], in [6], in data set [7] and in data set [8] was Active. Besides, the result in data set [9] and in [10] was Active. In addition, the MIC in data set [12] was found to be 1060 µM (≈ 602 µg/mL); in [5], 33 µM (≈ 18.8 µg/mL). The CC50 in data set [13] stood at 13.9 mM; in [11], 19.3 mM. Besides, in data set [4], the IC50 came to 811 nM.

“GENTAMICIN SULFATE [listing 2 of 2 here]” showed an IC50 in data set [4] of 28 nM. In data set [16], the CC50 came to 3.2 mM.

`NC[C@@H]1O[C@H](O[C@H]2[C@@H](O)[C@H](O[C@@H]3[C@@H](O)[C@H](N)C[C@H](N)[C@H]3O[C@H]3O[C@H](CO)[C@@H](O)[C@H](O)[C@H]3N)O[C@@H]2CO)[C@H](N)[C@@H](O)[C@@H]1O` [PAROMOMYCIN SULFATE]: the CC50 in [13] was 4.1 mM; in [11] it was 3.1 mM. Moreover, the IC50 in data set [4] is 51 nM. This molecule also gave an MIC in data set [5] of 1.2 µM.

`C[C@H](N)[C@H]1O[C@@H](O[C@@H]2[C@@H](O)[C@H](N)C[C@H](N)[C@H]2O[C@H]2O[C@H](CO)[C@@H](O)[C@H](O)[C@H]2N)[C@H](O)[C@@H]1O`: the outcome in [1], in data set [14], in [6], in data set [9], in data set [10] and in [15] was Active. Also, the MIC was found to be 2660 µM (≈ 1250 µg/mL) in data set [12] and 83 µM (≈ 38.9 µg/mL) in data set [5]. The CC50 in [13] was 23.5 mM; in [11], 21.8 mM. Besides, in [4], the IC50 worked out at 1960 nM.

The record behind these values is ChEMBL document CHEMBL3217644, “Repairing faulty genes by aminoglycosides: Identification of new pharmacophore with enhanced suppression of disease-causing nonsense mutations” (Medchemcomm, 2011).
